Residues, ends and D or L forms follow the SMILES beside them. No end group written: not given here.
Assays:
WT CXCR4 [1] = target: T1, WT CXCR4 (Homo sapiens, UniProt P61073); experiment: Gαi BRET of peptides on WT CXCR4; assay type: cell-based; conditions: WT receptor, Gi
Description: (§1) Lyophilized peptides were stored at −80 °C and resuspended in assay buffer on the day of the experiment.
(§2) 40,000 HEK 293T cells were transiently transfected with WT or variant HA3-CXCR4, Gαi1−91-Rluc8, Gβ3-WT, and Gγ9-GFP2 in pcDNA3.1(+) at a ratio of 10:1:10:5 respectively. Cells were first seeded in 100 µL DMEM 10% FBS in a poly-lysine coated, white-walled, white-bottom 96-well plate. Directly after cell loading, 50 µL of the mixture containing Lipofectamine 2000 and the DNA was added on top of the cells. The cells were then left to incubate at 37 °C, 5% CO2, and 95% relative humidity for 20 h, after which, 150 µL media was refreshed. Cells were assayed 48 h post-transfection. Cells were washed with 150 µL PBS, then 40 µL BRET buffer (HBSS, 0.2% Glucose) was added to each well. Coelenterazine 400a was first added at a final concentration of 2.5 µM and BRET ratios were measured once using Mithras[2] LB 943 plate reader. After the first measurement, 40 µL of a 3x concentrated agonist solution was added to each well, and BRET ratios were measured for another 30 min using a Mithras[2] LB 943 plate reader. Mock-transfected controls were subtracted from the data. Maximum values averaged from 3 replicates were then plotted against selected concentrations and fitted to a sigmoidal curve using GraphPad Prism v9.

WT CXCR4 [2] = target: T1, WT CXCR4; experiment: Calcium mobilization of peptides on WT CXCR4; assay type: cell-based; conditions: WT receptor, Ca
Description: as §1
(§3) Calcium mobilization assays
(§4) 40,000 HEK 293T cells (gift from Prof. Ted Wensel at Baylor College of Medicine) were transiently transfected with 50 ng WT or variant HA3-CXCR4, 10 ng GNA15 in pcDNA3.1(+). To equalize receptor surface expression, 75 ng of HA3-CXCR4 was used for the Csel2 variant. Cells were first seeded in 100 µL DMEM (Gibco, ref: 41965-039) 10 % FBS in a black-walled, clear-bottom 96-well plate coated with poly-lysine (Sigma, ref: P6407-5MG). Directly after cell loading, 50 µL of the mixture containing 0.5 µL Lipofectamine 2000 (Invitrogen, ref: 11668-019) and the DNA was added on top of the cells. The cells were incubated at 37 °C, 5% CO2, and 95% relative humidity for 20 h, after which, media was refreshed with 150 µL DMEM + 10% FBS. Cells were assayed 48 h post-transfection. Cells were washed with 200 µL FLIPR6 buffer (HBSS + 20 mM HEPES, pH 7.4), then incubated at 37 °C, 5% CO2, and 95% relative humidity for 2 h in 200 µL dye buffer according to the manufacturer’s protocol (Molecular Devices, ref: R8190). Just before the assay, 5× concentrated peptide solutions were prepared in FLIPR6 buffer in a V-bottom 96-well plate. After incubation, peptide solutions were added at a rate of 16 µL/s after 30 s and fluorescence changes were monitored for 90 s after addition using microplate reader FlexStation3 (Molecular Devices). The maximum response after correction by the mock-transfected condition was averaged from three replicates. Values were then plotted against selected concentrations and fitted to a sigmoidal curve using GraphPad Prism v9.

Csedy [3] = target: T2, Csedy (Homo sapiens, UniProt P61073); experiment: Gαi BRET of peptides on Csedy; assay type: cell-based; conditions: Csedy receptor; for log(EC50): Gi
Description: as §1, §2

Csedy [4] = target: T2, Csedy; experiment: Calcium mobilization of peptides on Csedy; assay type: cell-based; conditions: Csedy receptor, Ca
Description: as §1, §3, §4

[5] = target: Cdyn designed CXCR4 receptor (UniProt P61073)
[6] = target: Cdyn designed CXCR4 receptor (UniProt P61073); remark: listed apart in the source
[7] = target: Csedy designed CXCR4 receptor (UniProt P61073)
[8] = target: Csel2 designed CXCR4 receptor (UniProt P61073)
Gαi activation = experiment: Gαi dissociation BRET of designed receptors with WT CXCL12(1-17) peptide; assay type: cell-based; conditions: WT CXCL12 peptide
Description: as §1, §2

[9] = system: CXCR4 variant ligand-binding cavity; experiment: Receptor cavity cross-sectional area and structure-function map; conditions: receptor–peptide pair; Fig. 5c z-axis
Description: Calculation of receptor cavity cross-sectional area
To quantify the conformational diversity of the ligand binding site between receptor variants, the ligand-binding pocket of the receptor models (from whose the ligand molecule was removed) was geometrically described using pyKVFinder[75]. Cavities were defined using a 1.2 Å probe over a cubic lattice (0.25 Å vertex). A 4.0 Å probe was used to define the entrance of the cavity.

[10] = target: Csedy designed CXCR4 receptor (UniProt P61073); remark: listed apart in the source
[11] = target: WT CXCR4 with an N-terminal 3xHA-tag (UniProt P61073)
[12] = target: Csel2 designed CXCR4 receptor (UniProt P61073); remark: listed apart in the source

T1 sequence (P61073 whole entry): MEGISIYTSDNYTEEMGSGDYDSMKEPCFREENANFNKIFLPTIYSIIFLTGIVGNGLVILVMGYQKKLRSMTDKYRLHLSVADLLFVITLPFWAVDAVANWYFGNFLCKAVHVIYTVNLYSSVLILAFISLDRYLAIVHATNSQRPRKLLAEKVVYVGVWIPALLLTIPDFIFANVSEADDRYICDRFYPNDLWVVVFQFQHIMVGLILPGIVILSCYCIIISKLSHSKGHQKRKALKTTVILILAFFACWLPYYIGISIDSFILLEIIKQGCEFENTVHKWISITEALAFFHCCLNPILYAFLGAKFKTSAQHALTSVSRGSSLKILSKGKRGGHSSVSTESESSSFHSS
T2 sequence (P61073 whole entry): as above

Which Efficacy (WT CXCR4 [1]; average (n=3)) does the source give for `CC(C)C[C@H](NC(=O)[C@H](CO)NC(=O)[C@@H](NC(=O)[C@@H]1CCCN1C(=O)[C@@H](N)CCCCN)C(C)C)C(=O)N[C@@H](CO)C(=O)N[C@@H](Cc1ccc(O)cc1)C(=O)N[C@@H](CCCNC(=N)N)C(=O)N[C@@H](CS)C(=O)N1CCC[C@H]1C(=O)N[C@@H](CS)C(=O)N[C@@H](CCCNC(=N)N)C(=O)N[C@@H](Cc1ccccc1)C(=O)N[C@@H](Cc1ccccc1)C(=O)N[C@@H](CCC(=O)O)C(=O)N[C@@H](CO)C(=O)N[C@@H](Cc1c[nH]cn1)C(N)=O` [WT, reference compound] (H-KPVSLSYRCPCRFFESH-NH2) here?
Its Efficacy is 100 % WT.

And the EC50 (WT CXCR4 [1]; replicate 1)?
Its EC50 is 11.2 µM.

What about the EC50 (WT CXCR4 [1]; replicate 2) of the same molecule?
Its EC50 is 9.75 µM.

And the EC50 (WT CXCR4 [1]; replicate 3)?
Its EC50 is 12 µM.

What about the Efficacy (WT CXCR4 [2]; average (n=3)) of the same molecule?
Its Efficacy is 100 % WT.

What about the EC50 (WT CXCR4 [2]; replicate 1) of the same molecule?
The EC50 was 12.9 µM.

And the EC50 (WT CXCR4 [2]; replicate 2)?
The EC50 was 8.57 µM.

What about the EC50 (WT CXCR4 [2]; replicate 3) of the same molecule?
The EC50 was 15.3 µM.

Which increase in efficacy (Csedy [3]; vs WT receptor–peptide pair) does the source give for `CC(C)C[C@H](NC(=O)[C@H](CO)NC(=O)[C@H](Cc1ccc(O)cc1)NC(=O)[C@@H]1CCCN1C(=O)[C@@H](N)CCCCN)C(=O)N[C@@H](CO)C(=O)N[C@@H](CC(C)C)C(=O)N[C@@H](CCCNC(=N)N)C(=O)N[C@@H](CS)C(=O)N1CCC[C@H]1C(=O)N[C@@H](CS)C(=O)N[C@@H](CCCNC(=N)N)C(=O)N[C@@H](Cc1ccccc1)C(=O)N[C@@H](Cc1ccccc1)C(=O)N[C@@H](CCC(=O)O)C(=O)N[C@@H](CO)C(=O)N[C@@H](Cc1c[nH]cn1)C(N)=O` [V3Y-Y7L] (H-KPYSLSLRCPCRFFESH-NH2) here?
Its increase in efficacy is greater than 34%.

And the “log(EC50)” value (Csedy [3]; replicate 1)?
Its value is -6.83.

What about the “log(EC50)” value (Csedy [3]; replicate 2) of the same molecule?
Its value is -7.058.

What about the “log(EC50)” value (Csedy [3]; replicate 3) of the same molecule?
Its value is -7.474.

What about the Efficacy (Csedy [4]; average (n=3)) of the same molecule?
The Efficacy was 102.027 % WT.

What about the “log(EC50)” value (Csedy [4]; replicate 1) of the same molecule?
The value was -5.519.

What about the “log(EC50)” value (Csedy [4]; replicate 2) of the same molecule?
The value was -5.737.

And the “log(EC50)” value (Csedy [4]; replicate 3)?
Its value is -5.907.

Which efficacy of signaling, increase over the WT receptor-peptide pair [5] does the source give for KPYSLSYRCPCRFFESH-NH2 (cysteine pairing not given here) [CXCL12 V3Y variant peptide (17 N-terminal residues)] here?
The efficacy of signaling, increase over the WT receptor-peptide pair was 25%.

And the potency of signaling, fold over the WT receptor-peptide pair [5]?
Its potency of signaling, fold over the WT receptor-peptide pair is greater than 80 fold.

What does the source list for KPVSLSYRCPCRFFESH-NH2 (cysteine pairing not given here) [wild-type peptide of the 17 N-terminal residues of CXCL12]?
Gαi efficacy (BRET, WT CXCL12 peptide), increase over the CXCR4 WT scaffold [6]: 20%; Gαi potency (BRET, WT CXCL12 peptide), fold over the CXCR4 WT scaffold [6]: 11 fold; Gαi response (BRET) against WT CXCL12 peptide, fold increase over WT CXCR4 [7]: > 9 fold; potency in Gαi-coupling (BRET, HEK 293T cells, WT CXCL12 peptide), fold over WT CXCR4 [8]: 3.2 fold; potency in calcium mobilization (HEK 293T cells, WT CXCL12 peptide), fold over WT CXCR4 [8]: 3.1 fold

B1: Cdyn: CXCR4 receptor design maintaining conformational dynamism; 3 mutations (protein, UniProt P61073 1-352, looked up, variant L41A S178A H113N)
C-X-C chemokine receptor type …: MEGISIYTSDNYTEEMGSGDYDSMKEPCFREENANFNKIFAPTIYSIIFLTGIVGNGLVILVMGYQKKLRSMTDKYRLHLSVADLLFVITLPFWAVDAVANWYFGNFLCKAVNVIYTVNLYSSVLILAFISLDRYLAIVHATNSQRPRKLLAEKVVYVGVWIPALLLTIPDFIFANVAEADDRYICDRFYPNDLWVVVFQFQHIMVGLILPGIVILSCYCIIISKLSHSKGHQKRKALKTTVILILAFFACWLPYYIGISIDSFILLEIIKQGCEFENTVHKWISITEALAFFHCCLNPILYAFLGAKFKTSAQHALTSVSRGSSLKILSKGKRGGHSSVSTESESSSFHSS
B1 was tested. Which “enhanced potency from WT” value (Gαi activation; up to) did it give?
Its value is “up to 11 -fold”.

What about the “enhanced potency in Gαi-coupling” value (Gαi activation; over WT CXCR4) of the same molecule?
The value was ~11 -fold.

And the “increase in efficacy (Gαi)” value (Gαi activation; vs WT CXCR4)?
Its value is 20%.

What about the “Potency (activity shift from WT)” value [9] of the same molecule?
The value was 1.794.

KPYSLSLRCPCRFFESH-NH2 (cysteine pairing not given here) [CXCL12 V3Y-Y7L variant peptide (17 N-terminal residues)] was tested. Which efficacy of signaling, increase [10] did it give?
The efficacy of signaling, increase was 34%.

What about the potency of signaling, fold increase [10] of the same molecule?
Its potency of signaling, fold increase is greater than 100 fold.

Which overall Gαi response (BRET) with the Y7L peptide, decrease [11] does the source give for KPVSLSLRCPCRFFESH-NH2 (cysteine pairing not given here) [CXCL12 Y7L variant peptide (17 N-terminal residues)] here?
Its overall Gαi response (BRET) with the Y7L peptide, decrease is 18%.

What about the Gαi efficacy (BRET) with the Y7L peptide, increase [12] of the same molecule?
Its Gαi efficacy (BRET) with the Y7L peptide, increase is 30%.

From publication PMC10198977, “Computational design of dynamic receptor—peptide signaling complexes applied to chemotaxis” (Nature Communications, 2023)
